Consider 17 molecules from US11008317B2, “Triazolopyridine inhibitors of myeloperoxidase and/or EPX” (priority 2016, dated 2021).

Experiment [1] concerns the target T1, myeloperoxidase (Homo sapiens, UniProt P05164).
T1 sequence (P05164 49-745): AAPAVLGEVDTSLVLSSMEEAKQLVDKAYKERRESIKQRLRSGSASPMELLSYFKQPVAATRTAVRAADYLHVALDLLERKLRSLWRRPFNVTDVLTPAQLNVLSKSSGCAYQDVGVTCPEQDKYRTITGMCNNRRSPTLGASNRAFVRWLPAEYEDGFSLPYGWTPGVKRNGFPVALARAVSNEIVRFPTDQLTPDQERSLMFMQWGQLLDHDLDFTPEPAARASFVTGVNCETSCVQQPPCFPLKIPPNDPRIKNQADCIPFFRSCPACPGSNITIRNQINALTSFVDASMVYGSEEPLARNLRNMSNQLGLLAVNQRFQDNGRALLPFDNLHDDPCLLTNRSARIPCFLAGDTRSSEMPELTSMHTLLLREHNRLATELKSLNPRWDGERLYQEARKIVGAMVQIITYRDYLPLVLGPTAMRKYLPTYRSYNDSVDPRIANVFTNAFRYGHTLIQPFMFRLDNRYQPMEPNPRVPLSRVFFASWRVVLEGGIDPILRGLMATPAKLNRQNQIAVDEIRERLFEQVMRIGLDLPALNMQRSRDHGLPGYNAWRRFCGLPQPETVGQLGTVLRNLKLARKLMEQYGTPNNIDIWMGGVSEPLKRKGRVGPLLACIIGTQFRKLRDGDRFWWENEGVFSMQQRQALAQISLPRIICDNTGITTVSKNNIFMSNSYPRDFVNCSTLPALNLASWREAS
In words: MPO Peroxidation Assay (Amplex Red Assay). The experiment is classed as biochemical. Particulars: potency range class, read-out: Amplex Red Assay IC50 value.

The target in experiment [2] is T1, myeloperoxidase. Briefly: MPO Chlorination Assay (APF Assay). It is filed as biochemical. The note with it: potency range class, read-out: APF Assay IC50 value.

In general, IC50 refers to the concentration at which inhibition is half-maximal.

Take `Nc1cc([C@H](Cc2nc3c(-c4cccc(Cl)c4)cccc3[nH]2)c2ccccc2)c2nn[nH]c2n1` [Example 247, (R)-7-(2-(4-(3-chlorophenyl)-1H-benzo[d]imidazol-2-yl)-1-phenylethyl)-3H-[1,2,3]triazolo [4,5-b]pyridin-5-amine]: the IC50 on myeloperoxidase [1] lay within 101 to 999 nM; on myeloperoxidase [2], 1 to 100 nM.

With `Nc1cc([C@H](Cc2nc3c(-c4ccccc4)cc(C(F)(F)F)cc3[nH]2)c2ccccc2)c2nn[nH]c2n1` [Example 248, (R)-7-(1-phenyl-2-(4-phenyl-6-(trifluoromethyl)-1H-benzo [d]imidazol-2-yl)ethyl)-3H-[1,2,3] triazolo[4,5-b] pyridin-5-amine], the half-maximal inhibitory concentration (IC50) on myeloperoxidase [1] was 101 to 999 nM; on myeloperoxidase [2], 1 to 100 nM.

On to `NC(=O)c1ccc(-c2cccc3[nH]c(C[C@H](c4ccccc4)c4cc(N)nc5[nH]nnc45)nc23)cc1` [Example 249, (R)-4-(2-(2-(5-amino-3H-[1,2,3]triazolo [4,5-b]pyridin-7-yl)-2-phenylethyl)-1H-benzo[d]imidazol-4-yl)benzamide], for which the IC50 on myeloperoxidase [1] was 101 to 999 nM; at myeloperoxidase [2], 1 to 100 nM.

On to `Nc1cc([C@H](Cc2nc3ccc(-c4ccc(Cl)cc4)cc3[nH]2)c2ccccc2)c2nn[nH]c2n1` [Example 250], for which the results for the IC50 at myeloperoxidase [1] and on myeloperoxidase [2] were 101 to 999 nM and 1 to 100 nM, respectively.

With `Nc1cc([C@H](Cc2nc3c(-c4cccc(C5CC5)c4)cccc3[nH]2)c2ccccc2)c2nn[nH]c2n1` [Example 251, (R)-7-(2-(4-(3-cyclopropylphenyl)-1H-benzo[d]imidazol-2-yl)-1-phenylethyl)-3H-[1,2,3]triazolo [4,5-b]pyridin-5-amine], the IC50 at myeloperoxidase [1] lay in the range of 1000 to 10000 nM; at myeloperoxidase [2] it was 1 to 100 nM.

Turning to `N#Cc1cccc(-c2cccc3[nH]c(C[C@H](c4ccccc4)c4cc(N)nc5[nH]nnc45)nc23)c1` [Example 252, (R)-3-(2-(2-(5-amino-3H-[1,2,3]triazolo [4,5-b]pyridin-7-yl)-2-phenylethyl)-1H-benzo[d]imidazol-4-yl)benzonitrile], the 50% inhibitory concentration (IC50) at myeloperoxidase [1] lay within 1000 to 10000 nM; at myeloperoxidase [2], 1 to 100 nM.

For the molecule `Nc1cc([C@H](Cc2nc3c(-c4ccc(Cl)cc4)cccc3[nH]2)c2ccccc2)c2nn[nH]c2n1` [Example 253, (R)-7-(2-(4-(4-chlorophenyl)-1H-benzo[d]imidazol-2-yl)-1-phenylethyl)-3H-[1,2,3]triazolo [4,5-b] pyridin-5-amine], the results for the concentration for half-maximal inhibition (IC50) on myeloperoxidase [1] and at myeloperoxidase [2] were 1000 to 10000 nM and 1 to 100 nM, respectively.

`N#Cc1cc(-c2ccccc2)c2nc(C[C@H](c3ccccc3)c3cc(N)nc4[nH]nnc34)[nH]c2c1` [Example 254, (R)-2-(2-(5-amino-3H-[1,2,3]triazolo [4,5-b]pyridin-7-yl)-2-phenylethyl)-4-phenyl-1H-benzo[d]imidazole-6-carbonitrile]: the values for the IC50 on myeloperoxidase [1] and on myeloperoxidase [2] were 1000 to 10000 nM and 1 to 100 nM, respectively.

On to `N#Cc1ccc(-c2ccc3nc(C[C@H](c4ccccc4)c4cc(N)nc5[nH]nnc45)[nH]c3c2)cc1` [Example 255, (R)-4-(2-(2-(5-amino-3H-[1,2,3]triazolo[4,5-b]pyridin-7-yl)-2-phenylethyl)-1H-benzo[d]imidazol-6-yl)benzonitrile], for which the IC50 at myeloperoxidase [1] fell in the range of 1000 to 10000 nM; on myeloperoxidase [2] it was 1 to 100 nM.

As for `Nc1cc([C@H](Cc2nc3ccc(-c4ccccc4)cc3[nH]2)c2ccccc2)c2nn[nH]c2n1` [Example 256, (R)-7-(1-phenyl-2-(6-phenyl-1H-benzo[d]imidazol-2-yl)ethyl)-3H-[1,2,3]triazolo [4,5-b]pyridin-5-amine], the IC50 on myeloperoxidase [1] and at myeloperoxidase [2] was 101 to 999 nM throughout.

For `Cn1c(C[C@H](c2ccccc2)c2cc(N)nc3[nH]nnc23)nc2ccc(-c3ccccc3)cc21` [Example 257, (R)-7-(2-(1-methyl-6-phenyl-1H-benzo[d]imidazol-2-yl)-1-phenylethyl)-3H-[1,2,3]triazolo[4,5-b] pyridin-5-amine], the IC50 at myeloperoxidase [1] is 1000 to 10000 nM; on myeloperoxidase [2], 101 to 999 nM.

`Cn1c(C[C@H](c2ccccc2)c2cc(N)nc3[nH]nnc23)nc2cc(-c3ccccc3)ccc21` [Example 258, (R)-7-(2-(1-methyl-5-phenyl-1H-benzo[d]imidazol-2-yl)-1-phenylethyl)-3H-[1,2,3]triazolo[4,5-b] pyridin-5-amine]: the 50% inhibitory concentration (IC50) on myeloperoxidase [1] was in the range of 1000 to 10000 nM; at myeloperoxidase [2], 101 to 999 nM.

Take `Nc1cc([C@H](Cc2nc3cc(F)c(-c4ccccc4)cc3[nH]2)c2ccccc2)c2nn[nH]c2n1` [Example 259, (R)-7-(2-(5-fluoro-6-phenyl-1H-benzo[d]imidazol-2-yl)-1-phenylethyl)-3H-[1,2,3]triazolo[4,5-b] pyridin-5-amine]: the IC50 at myeloperoxidase [1] and at myeloperoxidase [2] was 101 to 999 nM in each case.

Consider `Nc1cc([C@H](Cc2nc3c(-c4ccccc4Cl)cccc3[nH]2)c2ccccc2)c2nn[nH]c2n1` [Example 260, (R)-7-(2-(4-(2-chlorophenyl)-1H-benzo[d]imidazol-2-yl)-1-phenylethyl)-3H-[1,2,3]triazolo [4,5-b]pyridin-5-amine], for which the IC50 lay in the range of 1000 to 10000 nM at myeloperoxidase [1] and 101 to 999 nM at myeloperoxidase [2].

For `Nc1cc([C@H](Cc2nc3ccccc3[nH]2)c2ccccc2)c2nn[nH]c2n1` [Example 261, (R)-7-(2-(1H-benzo [d]imidazol-2-yl)-1-phenylethyl)-3H-[1,2,3]triazolo[4,5-b] pyridin-5-amine], the IC50 lay within 101 to 999 nM at myeloperoxidase [1] and 1000 to 10000 nM on myeloperoxidase [2].

As for `Cn1c(C[C@H](c2ccccc2)c2cc(N)nc3[nH]nnc23)nc2c(-c3ccccc3)cccc21` [Example 262, (R)-7-(2-(1-methyl-4-phenyl-1H-benzo[d]imidazol-2-yl)-1-phenylethyl)-3H-[1,2,3]triazolo [4,5-b]pyridin-5-amine], the IC50 on myeloperoxidase [1] and at myeloperoxidase [2] was 1000 to 10000 nM each time.

As for `Nc1cc([C@H](Cc2nc3ccc(Br)cc3s2)c2ccccc2)c2nn[nH]c2n1` [Example 263, (R)-7-(2-(6-bromobenzo [d]thiazol-2-yl)-1-phenylethyl)-3H-[1,2,3]triazolo[4,5-b] pyridin-5-amine], the IC50 at myeloperoxidase [1] and on myeloperoxidase [2] was 101 to 999 nM in each case.
